# Assay results taken from US20040180850A1, “Methods and compositions for treatment of gastric diseases” (priority 2001, published 2004).
# Entries after “also recorded” stand apart in the source; their conditions may differ.
# Columns and labels:
# [1] = test system: Helicobacter pylori (strain 032); experiment: TLC bacterial overlay assay: binding of radiolabeled Helicobacter pylori to glycosphingolipids separated on thin-layer chromatograms; conditions: for Helicobacter pylori binding activity of glycosphingolipid (in words): TLC overlay with 35S-labeled bacteria, autoradiography; for binding frequency for Helicobacter pylori: strain 032, total number of plates about 100
# Helicobacter pylori [2] = experiment: TLC overlay assay of neoglycolipids (reductively aminated oligosaccharides); type: binding
# Description: The Helicobacter pylori binding oligosaccharide sequence has been reported in the structure GlcNAcβ3Galβ4GlcNAcβ6GalNAc from human gastric mucins. […] Therefore the preferred oligosaccharide sequences include O-glycans and analogues of O-glycan sequences such as GlcNAcβ3Galβ4GlcNAcβ6GlcNAc/GalNAc/Gal, GleNAcβ3Galβ4GlcNAcβ6GlcNAc/GalNAc/GalαSer/Thr, GlcNAcβ3Galβ4GlcNAcβ6(Gal/GlcNAcβ3)GlcNAc/GalNAc/GalαSer/Thr and glycopeptides and glycopeptide analogs comprising the O-glycan sequences. Even sequences lacking the non-reducing end GlcNAc may have some activity. Based on this all the other Helicobacter pylori binding oligosaccharide sequences (OS) and especially the trisaccharide epitopes are also especially preferred when linked from the reducing end to form structures OSβ6Gal(NAc)0-1 or OSβ6Glc(NAc)0-1 or OSβ6Gal(NAc)0-1Ser/Thr or OSβ6Glc(NAc)0-1αSer/Thr. The Ser or Thr-compounds or analogue thereof or the reducing oligosaccharides are also preferred when linked to a polyvalent carrier. The reducing oligosaccharides can be reductively linked to the polyvalent carrier.
# TLC bacterial overlay assay. Thin-layer chromatography was performed on glass- or aluminum-backed silica gel 60 HPTLC plates (Merck, Darmstadt, Germany) using chloroform/methanol/water 60:35:8 (by volume) as solvent system. Chemical detection was accomplished by anisaldehyde stainig (Waldi, 1962). The bacterial overlay assay was performed as described previously (Hansson et al., 1985). Glycosphingolipids (1-4 μg/lane, or as indicated in the figure legend) were chromatographed on aluminum-backed silica gel plates and thereafter treated with 0.3-0.5% polyisobutylmethaerylate in diethylether/n-hexane 1:3 (by volume) for 1 min, dried and subsequently soaked in PBS containing 2% bovine serum albumin and 0.1% Tween 20 for 2 h A suspension of radio-labeled bacteria (diluted in PBS to 1×10^8 CFU/ml and 1-5×10^6 cpm/ml) was sprinkled over the chromatograms and incubated for 2 h followed by repeated rinsings with PBS. After drying the chromatograms were exposed to XAR-5 X-ray films (Eastman Kodak Co., Rochester, N.Y., USA) for 12-100 h.
# 0.6 mg of pentasaccharide was obtained after HPLC-purcation steps, the saccharide was more than 98% pure when analyzed by mass spectrometry. Part of the pentasaccharide and maltoheptaose (Sigma, Saint Louis, USA) were reductively aminated with 4-hexadecylamnie (abbreviation HDA, from Aldrich, Stockholm, Sweden) by cyanoborohydride (Halina Miller-Podraza, to be published later). […]
# Helicobacter pylori [3] = experiment: Semi-quantitative TLC overlay test with dilution series of glycosphingolipids; type: binding; conditions: evaluated visually after overlay with labeled bacteria and autoradiography
Compound,Helicobacter pylori binding activity of glycosphingolipid (in words) [1],further results
Fucα2Galβ4GlcNAcβ3Galβ4Glcβ1Cer [No. 18],absence of binding,
Galα3Galβ4GlcNAcβ3Galβ4Glcβ1Cer [No. 13],binding-active,
CCCCCCCCCCCCCCCCc1ccc(NC[C@H](O)[C@@H](O)[C@H](O[C@@H]2O[C@H](CO)[C@H](O)[C@H](O[C@@H]3O[C@H](CO)[C@@H](O[C@@H]4O[C@H](CO)[C@H](O)[C@H](O[C@@H]5O[C@H](CO)[C@@H](O)[C@H](O)[C@H]5NC(C)=O)[C@H]4O)[C@H](O)[C@H]3NC(C)=O)[C@H]2O)[C@H](O)CO)cc1 [GlcNAcβ3Galβ4GlcNAcβ3Galβ4Glc(red)-HDA],,binding activity of neoglycolipid with regard to Helicobacter pylori (in words) (Helicobacter pylori [2]): observable binding activity
CC(=O)N[C@H]1[C@H](OC[C@H]2OC(O)[C@H](NC(C)=O)[C@@H](O)[C@@H]2O)O[C@H](CO)[C@@H](O[C@@H]2O[C@H](CO)[C@H](O)[C@H](O[C@@H]3O[C@H](CO)[C@@H](O)[C@H](O)[C@H]3NC(C)=O)[C@H]2O)[C@@H]1O (some centres unmarked) [GlcNAcβ3Galβ4GlcNAcβ6GlcNAc],,binding activity of neoglycolipid with regard to Helicobacter pylori (in words) (Helicobacter pylori [2]): high affinity binding
Galβ4GlcNAcβ3Galβ4GlcNAcβ3Galβ4Glcβ1Cer [No. 21],displayed binding activity,binding frequency for Helicobacter pylori [1]: ~90%; amount of glycolipid giving a positive response on TLC plates (binding of Helicobacter pylori) (Helicobacter pylori [3]): ~0.2 nmol/spot
Galα4Galβ4GlcNAcβ3Galβ4Glcβ1Cer [No. 15],absence of binding,
GalNAcα3(Fucα2)Galβ4GlcNAcβ3Galβ4Glcβ1Cer [No. 22],non-binding,
Galβ4GlcNAcβ3Galβ4Glcβ1Cer [No. 5],displayed binding activity,amount of glycolipid giving a positive response on TLC plates (binding of Helicobacter pylori) (Helicobacter pylori [3]): ~0.3 nmol/spot
GalNAcβ3Galβ4GlcNAcβ3Galβ4Glcβ1Cer [No. 11],binding was also found,
CC(=O)N[C@H]1[C@H](OC[C@H]2OC(O)[C@H](O)[C@@H](O)[C@H]2O)O[C@H](CO)[C@@H](O[C@@H]2O[C@H](CO)[C@H](O)[C@H](O[C@@H]3O[C@H](CO)[C@@H](O)[C@H](O)[C@H]3NC(C)=O)[C@H]2O)[C@@H]1O (some centres unmarked) [GlcNAcβ3Galβ4GlcNAcβ6Gal],,binding activity of neoglycolipid with regard to Helicobacter pylori (in words) (Helicobacter pylori [2]): some binding activity
Galα3(Fucα2)Galβ4GlcNAcβ3Galβ4Glcβ1Cer [No. 23],non-binding,
Galβ4Glcβ1Cer [diglycosylceramide],displayed binding activity,
NeuGcα3Galβ4GlcNAcβ3Galβ4GlcNAcβ3Galβ4Glcβ1Cer [No. 27],,binding by Helicobacter pylori isolates ([1]; about 60 isolates tested): bound by most Helicobacter pylori isolates
GlcNAcβ3Galβ4Glcβ1Cer [No. 1],inactive,
NeuAcα3GalNAcβ3Galβ4GlcNAcβ3Galβ4Glcβ1Cer [No. 24],non-binding,
GlcNAcβ3Galβ4GlcNAcβ3Galβ4Glcβ1Cer [No. 10],,Helicobacter pylori binding activity of glycosphingolipid (in words) ([1]; listed as pentaglycosylceramide): strong activity; also recorded: displayed binding activity; binding frequency for Helicobacter pylori [1]: ~90%; amount of glycolipid giving a positive response on TLC plates (binding of Helicobacter pylori) (Helicobacter pylori [3]): 0.039 nmol/spot
GalNAcβ3Galα3Galβ4GlcNAcβ3Galβ4Glcβ1Cer [No. 25],non-binding,
"maltoheptaose(red)-HDA [maltoheptaose/red)-HDA, reference compound]",,binding activity of neoglycolipid with regard to Helicobacter pylori (in words) (Helicobacter pylori [2]): totally inactive
